# How the values were obtained:
# IgE antibody production [1] = details: administered to C57BL/6 mice; cited from earlier work
# [2] = test system: spleen whole cells from Vα14-NKT cell-deficient mouse; test: Cytokine production in spleen whole cells from Vα14-NKT cell-deficient mouse; format: cell-based, Vα14-NKT cell-deficient mouse (C57BL/6 background); details: 100 ng/mL, 2 days
# Method: (§1) Spleen whole cells at 2×10^5 from C57BL/6 mouse were suspended in 200 μL of 10% fetal calf serum (FCS)-containing RPMI medium to which 100 ng/mL Lipo-(−), Lipo-αGC or α-galactosyl ceramide aqueous solution (α-GalCer) had been added, then the cell suspension was added to a 96-well U bottom culture plate, and cultured in the incubator containing 5% CO2 at 37° C. for 2 days. The levels of IFN-γ, IL-4 and IL-10 produced in the culture supernatant were measured by ELISA (FIG. 7 upper panels). The levels of IFN-γ and IL-4 were equivalent in Lipo-αGC group and αGalCer group, but the level of IL-10 in the Lipo-α group was 5 times higher than that in the α-GalCer group. When the same experiments were performed in the presence of anti-CD1d neutralization antibody (1B1, BD Bioscience PharMingen) at a final concentration of 10 μg/mL or using spleen whole cells from Vα14-NKT cell-deficient mouse (C57BL/6 background), IFN-γ, IL-4 and IL-10 in the culture supernatant were not detected (FIG. 7, lower panels).
# antibody production [3] = test: In vivo antibody production system using BDF1 mice; details: 2 μg/mouse intraperitoneal, days 0, 14, 55 and 64
# Method: Saline, α-GalCer, Lipo-(−) or Lipo-αGC (2 μg/mouse) was intraperitoneally administered in BDF1 mice (C57BL/6×DBA/2F1) (5 mice/group), after 3 days (day 0), which were primarily immunized with DNP-OVA and alum, and further the mice was boosted with DNP-OVA alone on the 55th day (day 55) after the primary immunization. On days 0, 14, 55 and 64, the blood was collected from the orbital venous plexus, and antibody titers of ant-DNP-IgE, anti-DNP-IgG1, anti-DNP-IgG2a, and the levels of total IgE, total IgG1 and total IgG2a in the plasma were measured by ELISA.
# [4] = test system: spleen dendritic cells (CD45RB/CD11c); test: Analysis of dendritic cells in spleen of administered mice by flow cytometry; format: in vivo, BALB/c mice; details: 2 μg/mouse intraperitoneal, after 3 days
# Method: Saline, α-GalCer, Lipo-(−) or Lipo-αGC (2 μg/mouse) was intraperitoneally administered in BALB/c mice, and after 3 days, the spleen was removed. Collagenase D (1 mg/mL, Roche) was injected into the spleen, which was then incubated in the CO2 incubator for 45 minutes. Subsequently, cells were collected from the spleen, suspended in 3 mL of HistoDenz (14.1%, SIGMA-Aldrich), and then the X-VIVO 15 medium (CAMBREX Bio Science Walkerville, Inc.) containing 50 μM 2-mercaptoethanol (2ME) was overlaid thereon. After centrifuging at 1,500 rpm for 5 minutes, the cells in the intermediate layer were collected. The cells were washed with the X-VIVO 15 medium containing 50 μm 2ME and 10% FCS, and suspended in phosphate buffered saline (PBS) containing 0.5% FCS. Biotinylated anti-CD3, -CD11b, -CD19, -CD49b, -Gr-1, -TER-119 and -B220 antibodies (all from BD Bioscience Pharmingen) were added to the cell suspension. The cells were incubated at 10° C. for 20 minutes, then washed once with PBS containing 0.5% FCS, and subsequently streptoavidin (SA)-conjugated magnetic beads (Miltenyi) were added thereto. […] The resulting cells were stained with PE-labeled anti-CD11c antibody (BD Bioscience Pharmingen) and APC-labeled anti-CD45RB antibody (BD Bioscience Pharmingen), and analyzed by flow cytometry. […]
# spleen whole cells = test: Cytokine production by Lipo-αGC in spleen whole cells; format: cell-based, C57BL/6 mouse
# Method: as §1
# NKT cells = details: cited from earlier work
# type I diabetes model = details: administered to NOD mice; cited from earlier work
# spleen CD4+ T cells = test: T cell activation ability using BDF1 mice (MTT proliferation of spleen CD4+ T cells); format: cell-based; details: 2 μg/mouse intraperitoneal, all DNP-OVA concentrations examined, 48 hours
# Method: Saline, α-GalCer, Lipo-(−) or Lipo-αGC (2 μg/mouse) was intraperitoneally administered in BDF1 mice, after 3 days, which were primarily immunized with DNP-OVA and alum. After 7 days, the spleen was removed, and CD4^+ T cells were prepared using magnetic microbeads (Miltenyi). Subsequently, antigen presenting cells were prepared by irradiating spleen whole cells from the normal BDF1 mouse with radiation of 20 Gy. The CD4^+ T cells at 2×10^5 and the antigen presenting cells at 2×10^5 pulsed with DNP-OVA suspended in 200 μL of the medium were placed in one well of the 96-well U bottom culture plate, and cultured in the incubator containing 5% CO2 at 37° C. After 48 hours, cell proliferation was assayed by MTT method (Promega #G4000).
# IgE antibody production [5] = details: same experiment, mice deleting the Vα14-NKT cells; cited from earlier work
# antibody production [6] = test: In vivo antibody production system using IL-10-deficient mice; parameters: species or system IL-10-deficient mice with C57BL/6 background; details: 2 μg/mouse intraperitoneal 3 days before immunization, day 14
# Method: Saline, α-GalCer, Lipo-(−) or Lipo-αGC (2 μg/mouse) was intraperitoneally administered in C57BL/6 mice (5 mice/group), after 3 days, which were primarily immunized with DNP-OVA and alum. On the 14th day after the primary immunization, the blood was collected from the orbital venous plexus, and antibody titers of ant-DNP-IgG1, anti-DNP-IgE and anti-DNP-IgG2a in the plasma were measured by ELISA. […] The same experiment was performed using the IL-10-deficient mice with C57BL/6 background.
# IgE = details: patients with atopic asthma; cited from earlier work
# [7] = test system: immunopotentiation and anti-tumor effects; details: cited from earlier work
# spleen CD11c+ DC = test: In vitro activity of ligand-containing liposome for dendritic cells: cytokine production; format: cell-based, BALB/c or C57BL/6 mouse; details: liposome composition 1 μg/mL, 48 hours, ELISA
# Method: Collagenase D (1 mg/mL, Roche) was injected into spleen from BALB/c or C57BL/6 mouse, which was then incubated in a CO2 incubator for 45 minutes. Subsequently, cells were collected from the spleen, suspended in 3 mL of HistoDenz (14.1%, SIGMA), and then X-VIVO 15 (Takara Bio) containing 50 μM 2-mercaptoethanol (2ME) was overlaid thereon. After centrifuging at 1,500 rpm for 5 minutes, the cells in an intermediate layer were collected and incubated in X-VIVO 15 medium containing 50 μM 2ME, 0.5% fetal calf serum and 20 ng/mL rmGM-CSF (Pharmingen) in the CO2 incubator for one and a half hours. After pipetting gently, the suspended cells were removed, the X-VIVO 15 medium containing 50 μM 2ME, 0.5% fetal calf serum and 20 ng/mL rmGM-CSF (Pharmingen) was added, and the cells were incubated in the CO2 incubator for 18 hours. The suspended cells were collected, and the cells bound to anti-CD11c antibody-magnetic microbeads (Miltenyi) were collected to render spleen CD11c^+ DC. The CD11c^+ DC at 1×10^4 cells were suspended in 200 μL of RPMI medium containing 10% fetal calf serum in a 96-well round bottom microtiter plate, the liposome composition at a final concentration of 1 μg/mL was added thereto, and the plate was incubated in the incubator containing 5% CO^2 at 37° C. After 48 hours, culture supernatants were collected, and levels of IFN-α, IL-10 and IL-12 were measured by ELISA (FIGS. 1 and 2). The levels of IL-10 and IFN-α were high whereas the levels of IL-12 were low in Lipo-β and Lipo-Imq groups. Conversely, in Lipo-β-CpG and Lipo-Imq-CpG groups, the levels of IL-10 and IFNα were low whereas the levels of IL-12 were high. […] In the same evaluation method, the production levels of IL-10 in CD11c^+ DC by Lipo-Imq-βGC were measured.
# [8] = in the presence of anti-CD1d neutralization antibody 10 μg/mL
# Sequence of IgE (P01854 1-425 limits assumed): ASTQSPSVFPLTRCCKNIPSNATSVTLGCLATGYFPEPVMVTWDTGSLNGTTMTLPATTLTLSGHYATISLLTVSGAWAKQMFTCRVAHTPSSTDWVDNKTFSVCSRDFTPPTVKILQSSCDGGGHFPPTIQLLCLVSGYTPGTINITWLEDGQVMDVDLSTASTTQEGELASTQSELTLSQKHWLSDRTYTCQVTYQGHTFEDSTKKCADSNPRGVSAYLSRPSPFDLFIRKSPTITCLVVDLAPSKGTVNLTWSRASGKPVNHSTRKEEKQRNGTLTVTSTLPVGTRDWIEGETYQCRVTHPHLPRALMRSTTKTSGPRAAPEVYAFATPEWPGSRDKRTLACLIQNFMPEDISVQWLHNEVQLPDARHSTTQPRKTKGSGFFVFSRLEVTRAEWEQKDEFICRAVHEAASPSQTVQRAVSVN
compound,measurement,setting,value
"CCCCCCCCCCCCCCCCCCCCCCCCCC(=O)N[C@@H](CO[C@H]1O[C@H](CO)[C@H](O)[C@H](O)[C@H]1O)[C@H](O)[C@H](O)CCCCCCCCCCCCCC [α-GalCer, α-Galactosyl ceramide]",production of IgE antibody induced by DNP-OVA and alum,IgE antibody production [1],inhibited
same,IFN-γ in the culture supernatant,[2],not detected
same,IL-4 in the culture supernatant,[2],not detected
same,IL-10 in the culture supernatant,[2],not detected
same,"changes of total IgG1, Lipo-αGC group versus α-GalCer or Lipo-(−) group",antibody production [3],nearly equivalent
same,"changes of total IgG2a, Lipo-αGC group versus α-GalCer or Lipo-(−) group",antibody production [3],nearly equivalent
same,number of CD45RBlowCD11chigh cells in the spleen,[4],more than in the mouse administered with Lipo-αGC
same,ratio of CD45RBhighCD11clow cells versus ratio of CD45RBlowCD11chigh cells,[4],reversed
same,"level of IFN-γ in culture supernatant, Lipo-αGC group versus αGalCer group","spleen whole cells; 100 ng/mL, 2 days, ELISA",equivalent
same,"level of IL-4 in culture supernatant, Lipo-αGC group versus αGalCer group","spleen whole cells; 100 ng/mL, 2 days, ELISA",equivalent
same,IFN-γ in the culture supernatant,spleen whole cells; [8],not detected
same,IL-4 in the culture supernatant,spleen whole cells; [8],not detected
same,IL-10 in the culture supernatant,spleen whole cells; [8],not detected
same,cytokine production of both IFN-γ and IL-4,NKT cells,induces
same,symptoms in type I diabetes model,type I diabetes model,symptomatic improvement was observed
same,proliferation of CD4+ T cells in response to DNP-OVA,spleen CD4+ T cells,highly proliferated
same,production of IgE antibody,IgE antibody production [5],not inhibited
same,inhibitory effect on the antibody production,antibody production [6],no inhibitory effect
rhuMAb-E25: humanized anti-IgE antibody (Genentech Inc.),effectiveness in clinical trials,IgE,highly effective
ceramide β-D-galactoside [β-GalCer],activity compared with immunopotentiation and anti-tumor effects of α-galactosyl ceramide compound,[7],much lower activity
same,level of IFN-α in culture supernatant,spleen CD11c+ DC,not detected or was very low
same,level of IL-10 in culture supernatant,spleen CD11c+ DC,not detected or was very low
same,level of IL-12 in culture supernatant,spleen CD11c+ DC,not detected or was very low
β-glycosyl ceramide,activity compared with immunopotentiation and anti-tumor effects of α-galactosyl ceramide compound,[7],much lower activity

# Reference: US9387170B2, “Drug having regulatory cell ligand contained in liposome” (RIKEN, priority 2004, dated 2016)
